According to US20220370440A1 (Lead Discovery Center GmbH, priority 2018, published 2022):

Assays:
[1] = Metabolic stability in mouse liver microsomes without cofactor NADPH; type: in vitro ADME; conditions: for Stability in presence of mouse liver microsomes without cofactor NADPH [% remaining after 50 min]: 3 μM test compound, 37° C., LC-MS/MS
From the text: There are two major groups of enzyme reactions catalyzed by drug metabolizing enzymes, the so called Phase I and Phase II reactions. The basic processes in phase I reactions are oxidation, reduction and/or hydrolysis mostly catalyzed by the cytochrome P450 (CYP) family of enzymes.
The following procedures describe the determination of the in vitro Phase I metabolic stability of test compounds using liver microsomes by measuring compound depletion over time. Test compound at the concentration of 3 μM was incubated with the liver microsomes from the mouse species and the experiment was performed without NADPH. The depletion of the test compounds was measured over time up to 50 minutes at 37° C. by LC-MS/MS. Different compounds were tested under these conditions for microsomal stability (see Table 5).

[2] = target: EGFR wt (Homo sapiens, UniProt P00533); experiment: EGFR wt Lance assay; type: biochemical
Procedure: (§1) Inhibition is indicated as […] [nM] (“−”=not measured). Compounds having an activity designated as “A” provided an IC50≤100 nM; compounds having an activity designated as “B” provided an 100 nM<IC50≤500 nM; compounds having an activity designated as “C” provided an 500 nM<IC50≤1000 nM; compounds having an activity designated as “D” provided an 1000 nM<IC50≤100000 nM; and compounds having an activity designated as “E” provided an IC50>10000 nM.

[3] = target: Her2 Exon 20 INSYVMA Ba/F3 (Homo sapiens, UniProt P04626, DUP772-775, cells depend on it); experiment: Her2 Exon 20 INSYVMA Ba/F3 CellTiter-Glo; type: cell-based; conditions: CellTiter-Glo, 72 h, read-out: Her2 Exon 20 INSYVMA Ba/F3 CTG IC50
Method in brief: (§2)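 Seed Ba/F3 cells; 24 h, 37 °C/5% CO2. Add cpds in DMSO, multiple concs; 72 h. CellTiter-Glo, 10 min RT, luminescence. IC50 by curve fit. Z′ ≥0.5 from DMSO vs 10 μM staurosporine.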

[4] = target: EGFR T790ML858R (Homo sapiens, UniProt P00533, L858R/T790M); experiment: EGFR T790ML858R Lance assay; type: biochemical
Procedure: as §1

[5] = test system: H1975; experiment: H1975 CellTiter-Glo; type: cell-based; conditions: Homo sapiens, NCI-H1975; 72 h compound incubation; read-out: H1975 CTG IC50
Method in brief: (§3)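 Cells seeded, after 24 h at 37° C/5% CO2 treated with compounds in DMSO at various concentrations for 72 h. Viability from ATP luminescence (CellTiter-Glo); DMSO and 10 μM Staurosporine as controls; IC50 from dose-response fit, plates accepted at Z′ ≥0.5.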

[6] = target: T1, HER2 INS YVMA (Homo sapiens, UniProt P04626, INS775YVMA); experiment: Lance Kinase Activity Assay, HER2 INS YVMA (Her2 Exon 20 INSYVMA Lance); type: biochemical; conditions: biochemical Lance assay
T1 construct: purchased DPF
Method in brief: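 Kinase phosphorylates a ULight-labelled peptide substrate; Eu anti-phospho antibody gives TR-FRET (ex 340 nm, em 665/615 nm). Compounds in 1:3 serial dilution over 8 steps, reaction started with ATP, 1 h at room temperature, stopped with EDTA-containing detection mix for 1 h. IC50 from sigmoidal dose-response curves.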

[7] = target: EGFR Exon 20 INSNPH Ba/F3 (Homo sapiens, UniProt P00533, DUP771-773, cells depend on it); experiment: EGFR Exon 20 INSNPH Ba/F3 CellTiter-Glo; type: cell-based; conditions: CellTiter-Glo, 72 h, read-out: EGFR Exon 20 INSNPH Ba/F3 CTG IC50
Method in brief: as §2

[8] = test system: A431; experiment: A431 CellTiter-Glo; type: cell-based; conditions: Homo sapiens, A-431; 72 h compound incubation; read-out: A431 CTG IC50
Method in brief: as §3

Chain of EGFR T790ML858R (P00533 25-1210 T790M/L858R): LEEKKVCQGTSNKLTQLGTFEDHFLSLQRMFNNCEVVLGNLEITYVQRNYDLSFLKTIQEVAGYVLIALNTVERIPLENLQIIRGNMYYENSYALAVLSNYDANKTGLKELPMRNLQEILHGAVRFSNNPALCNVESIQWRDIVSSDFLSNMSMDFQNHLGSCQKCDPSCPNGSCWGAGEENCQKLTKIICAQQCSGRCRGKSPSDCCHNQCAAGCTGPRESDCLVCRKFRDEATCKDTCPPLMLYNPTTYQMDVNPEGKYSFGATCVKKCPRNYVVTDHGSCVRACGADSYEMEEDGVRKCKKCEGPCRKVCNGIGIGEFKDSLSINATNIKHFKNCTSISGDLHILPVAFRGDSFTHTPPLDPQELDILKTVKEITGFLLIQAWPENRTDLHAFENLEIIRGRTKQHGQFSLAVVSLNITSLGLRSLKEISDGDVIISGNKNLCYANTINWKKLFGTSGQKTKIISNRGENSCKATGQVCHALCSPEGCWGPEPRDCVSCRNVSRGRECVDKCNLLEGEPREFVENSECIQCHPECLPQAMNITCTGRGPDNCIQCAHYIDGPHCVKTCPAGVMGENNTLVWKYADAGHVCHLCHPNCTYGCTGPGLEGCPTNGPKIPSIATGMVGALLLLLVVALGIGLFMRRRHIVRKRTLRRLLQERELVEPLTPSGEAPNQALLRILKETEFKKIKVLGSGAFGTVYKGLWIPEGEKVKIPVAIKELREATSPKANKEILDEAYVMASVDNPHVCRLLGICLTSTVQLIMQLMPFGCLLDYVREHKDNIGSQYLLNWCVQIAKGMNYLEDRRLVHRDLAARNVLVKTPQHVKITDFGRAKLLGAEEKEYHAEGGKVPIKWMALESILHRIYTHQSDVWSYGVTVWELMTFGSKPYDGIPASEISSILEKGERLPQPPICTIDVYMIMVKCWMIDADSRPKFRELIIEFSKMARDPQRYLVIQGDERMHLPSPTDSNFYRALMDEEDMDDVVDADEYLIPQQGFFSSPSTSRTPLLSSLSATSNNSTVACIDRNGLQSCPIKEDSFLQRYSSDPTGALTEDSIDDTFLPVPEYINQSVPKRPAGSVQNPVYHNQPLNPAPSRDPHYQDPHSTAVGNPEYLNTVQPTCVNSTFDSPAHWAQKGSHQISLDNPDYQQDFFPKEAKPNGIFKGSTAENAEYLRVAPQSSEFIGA
Chain of EGFR Exon 20 INSNPH Ba/F3 (P00533 with tags, fused parts or gaps DUP771-773): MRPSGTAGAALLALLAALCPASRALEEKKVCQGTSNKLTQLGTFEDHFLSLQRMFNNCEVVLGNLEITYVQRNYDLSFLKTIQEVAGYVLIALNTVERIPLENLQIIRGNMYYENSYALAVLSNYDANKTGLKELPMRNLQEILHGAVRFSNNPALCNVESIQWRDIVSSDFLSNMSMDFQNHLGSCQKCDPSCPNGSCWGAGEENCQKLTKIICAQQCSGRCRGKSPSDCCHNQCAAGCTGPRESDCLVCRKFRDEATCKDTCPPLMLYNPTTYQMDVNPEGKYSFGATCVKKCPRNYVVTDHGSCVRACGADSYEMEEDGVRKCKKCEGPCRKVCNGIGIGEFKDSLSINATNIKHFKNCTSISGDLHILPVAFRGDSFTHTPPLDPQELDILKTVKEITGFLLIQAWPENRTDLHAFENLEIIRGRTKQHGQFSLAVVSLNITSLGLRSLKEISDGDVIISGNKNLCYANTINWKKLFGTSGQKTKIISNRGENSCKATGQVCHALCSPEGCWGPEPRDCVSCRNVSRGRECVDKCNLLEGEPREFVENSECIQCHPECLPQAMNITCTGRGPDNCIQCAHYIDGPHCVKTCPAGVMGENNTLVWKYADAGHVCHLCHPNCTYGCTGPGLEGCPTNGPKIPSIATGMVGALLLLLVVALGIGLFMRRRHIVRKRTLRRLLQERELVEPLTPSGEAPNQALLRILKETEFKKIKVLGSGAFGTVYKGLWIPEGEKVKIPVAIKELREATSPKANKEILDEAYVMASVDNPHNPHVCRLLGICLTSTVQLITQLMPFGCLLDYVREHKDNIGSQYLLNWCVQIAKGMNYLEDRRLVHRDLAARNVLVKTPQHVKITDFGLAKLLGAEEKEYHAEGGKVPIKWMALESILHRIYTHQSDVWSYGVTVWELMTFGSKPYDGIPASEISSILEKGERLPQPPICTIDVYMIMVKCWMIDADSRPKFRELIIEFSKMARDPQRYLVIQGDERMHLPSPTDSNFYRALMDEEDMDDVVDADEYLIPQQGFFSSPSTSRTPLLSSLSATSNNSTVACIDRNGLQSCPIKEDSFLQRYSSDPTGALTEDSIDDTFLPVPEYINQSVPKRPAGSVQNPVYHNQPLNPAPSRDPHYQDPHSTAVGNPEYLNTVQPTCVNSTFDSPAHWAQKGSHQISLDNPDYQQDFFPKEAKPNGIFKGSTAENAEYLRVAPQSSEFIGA
Chain of Her2 Exon 20 INSYVMA Ba/F3 (P04626 with tags, fused parts or gaps DUP772-775): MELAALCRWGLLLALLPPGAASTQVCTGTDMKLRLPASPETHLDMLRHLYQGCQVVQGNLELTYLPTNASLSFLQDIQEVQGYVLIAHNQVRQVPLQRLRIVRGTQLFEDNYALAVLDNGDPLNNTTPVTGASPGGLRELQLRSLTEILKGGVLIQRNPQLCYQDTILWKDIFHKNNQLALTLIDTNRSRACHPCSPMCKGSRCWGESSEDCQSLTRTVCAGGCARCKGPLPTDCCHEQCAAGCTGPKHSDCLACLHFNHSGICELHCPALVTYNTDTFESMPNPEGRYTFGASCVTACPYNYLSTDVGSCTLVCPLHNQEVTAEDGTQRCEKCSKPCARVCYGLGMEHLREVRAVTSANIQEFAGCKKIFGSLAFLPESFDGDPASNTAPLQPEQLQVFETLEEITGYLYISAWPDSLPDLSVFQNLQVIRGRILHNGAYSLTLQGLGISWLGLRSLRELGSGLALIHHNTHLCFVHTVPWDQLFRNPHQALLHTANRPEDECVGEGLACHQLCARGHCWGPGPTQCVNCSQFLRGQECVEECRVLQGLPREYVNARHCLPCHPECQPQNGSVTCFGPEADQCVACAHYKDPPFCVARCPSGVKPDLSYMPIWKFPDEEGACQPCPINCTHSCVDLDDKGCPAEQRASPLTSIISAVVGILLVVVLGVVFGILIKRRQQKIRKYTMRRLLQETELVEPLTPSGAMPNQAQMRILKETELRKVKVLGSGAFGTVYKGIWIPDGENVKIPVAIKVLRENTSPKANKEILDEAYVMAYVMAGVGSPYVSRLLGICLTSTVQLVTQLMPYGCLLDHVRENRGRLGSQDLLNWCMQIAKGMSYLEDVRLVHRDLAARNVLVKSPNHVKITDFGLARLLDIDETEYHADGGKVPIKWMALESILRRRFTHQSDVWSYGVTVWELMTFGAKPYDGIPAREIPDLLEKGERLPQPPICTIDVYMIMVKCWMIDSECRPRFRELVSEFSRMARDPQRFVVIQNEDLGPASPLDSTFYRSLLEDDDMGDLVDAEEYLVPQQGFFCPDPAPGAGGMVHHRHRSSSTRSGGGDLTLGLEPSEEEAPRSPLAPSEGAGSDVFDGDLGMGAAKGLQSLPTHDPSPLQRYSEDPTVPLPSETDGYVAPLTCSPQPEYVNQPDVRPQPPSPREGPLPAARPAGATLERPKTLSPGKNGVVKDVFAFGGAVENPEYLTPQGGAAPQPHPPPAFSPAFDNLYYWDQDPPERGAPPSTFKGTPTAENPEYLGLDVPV
Chain of EGFR wt (P00533 25-1210): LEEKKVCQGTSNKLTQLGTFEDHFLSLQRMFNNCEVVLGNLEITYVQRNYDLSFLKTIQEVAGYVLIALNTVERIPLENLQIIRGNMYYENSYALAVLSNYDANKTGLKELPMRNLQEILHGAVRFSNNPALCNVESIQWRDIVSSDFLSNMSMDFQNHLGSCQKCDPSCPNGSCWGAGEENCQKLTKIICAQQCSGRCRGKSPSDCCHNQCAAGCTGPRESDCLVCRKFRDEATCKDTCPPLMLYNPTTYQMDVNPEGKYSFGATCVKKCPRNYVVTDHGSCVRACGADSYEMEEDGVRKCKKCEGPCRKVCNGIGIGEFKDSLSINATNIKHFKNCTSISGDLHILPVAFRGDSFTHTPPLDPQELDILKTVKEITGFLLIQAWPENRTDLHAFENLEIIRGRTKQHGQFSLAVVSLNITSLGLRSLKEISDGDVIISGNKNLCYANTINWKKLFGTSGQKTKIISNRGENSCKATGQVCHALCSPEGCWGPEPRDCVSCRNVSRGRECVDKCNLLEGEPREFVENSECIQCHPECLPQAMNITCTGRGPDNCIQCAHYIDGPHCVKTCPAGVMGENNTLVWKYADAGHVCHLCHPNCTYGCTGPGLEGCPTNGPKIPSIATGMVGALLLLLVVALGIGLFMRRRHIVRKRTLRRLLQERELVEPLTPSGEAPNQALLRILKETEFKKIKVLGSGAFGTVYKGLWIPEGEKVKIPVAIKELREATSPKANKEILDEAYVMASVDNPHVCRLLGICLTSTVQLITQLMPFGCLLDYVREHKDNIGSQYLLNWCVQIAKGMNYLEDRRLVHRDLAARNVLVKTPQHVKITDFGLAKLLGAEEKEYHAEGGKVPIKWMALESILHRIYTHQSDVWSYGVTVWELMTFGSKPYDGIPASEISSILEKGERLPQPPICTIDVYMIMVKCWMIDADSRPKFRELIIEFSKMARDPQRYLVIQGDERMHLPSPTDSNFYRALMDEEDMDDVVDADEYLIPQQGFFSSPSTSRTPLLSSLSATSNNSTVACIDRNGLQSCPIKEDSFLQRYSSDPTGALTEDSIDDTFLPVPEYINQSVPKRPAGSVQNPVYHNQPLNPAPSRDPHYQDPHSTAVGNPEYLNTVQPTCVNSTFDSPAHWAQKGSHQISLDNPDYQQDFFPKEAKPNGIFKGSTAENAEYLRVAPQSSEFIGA

Row | SMILES | Stability in presence of mouse liver microsomes without cofactor NADPH [% remaining after 50 min] [1] [% remaining after 50 min] | IC50 [2] [µM] | GI50 [3] [µM] | IC50 [4] [µM] | IC50 [5] [µM] | IC50 [6] [µM] | GI50 [7] [µM] | major metabolite observed ([1]; mouse liver microsomes with and without the cofactor NADPH) | IC50 [8] [µM]
1 | C=CC(=O)Nc1cc(-c2c(-c3cccc(CN4CCN(C(C)=O)CC4)c3)[nH]c3nccc(Cl)c23)ccc1C [Example 22, N-(5-(2-(3-((4-acetylpiperazin-1-yl)methyl)phenyl)-4-chloro-1H-pyrrolo[2,3-b]pyridin-3-yl)-2-methylphenyl)acrylamide] | >99 | 0.1 to 0.5 | 0.5 to 1 | ≤ 0.1 | 0.1 to 0.5 | 0.1 to 0.5 | 1 to 10 | – | –
2 | C=CC(=O)Nc1cc(-c2c(-c3ccc(N4CCOCC4)nc3)[nH]c3nccc(Cl)c23)ccc1C [Example 30, N-(5-(4-chloro-2-(6-morpholinopyridin-3-yl)-1H-pyrrolo[2,3-b]pyridin-3-yl)-2-methylphenyl)acrylamide] | >99 | ≤ 0.1 | 1 to 10 | ≤ 0.1 | 0.1 to 0.5 | 0.1 to 0.5 | 0.5 to 1 | – | –
3 | C=CC(=O)Nc1cc(-c2c(-c3ccc(N4CCN(C)CC4)cc3)[nH]c3ncc(C(=O)OC(C)C)cc23)ccc1C [Example 117, isopropyl 3-(3-acrylamido-4-methylphenyl)-2-(4-(4-methylpiperazin-1-yl)phenyl)-1H-pyrrolo[2,3-b]pyridine-5-carboxylate 2,2,2-trifluoroacetate] | 100 | – | – | – | – | – | – | – | –
4 | C=CC(=O)Nc1cc(-c2c(-c3cccc(C(=O)NCCCN4CCCC4)c3)[nH]c3nccc(Cl)c23)ccc1C [Example 47, 3-(3-(3-acrylamido-4-methylphenyl)-4-chloro-1H-pyrrolo[2,3-b]pyridin-2-yl)-N-(3-(pyrrolidin-1-yl)propyl)benzamide] | – | ≤ 0.1 | 1 to 10 | ≤ 0.1 | ≤ 0.1 | ≤ 0.1 | 1 to 10 | – | 0.5 to 1
5 | C=CC(=O)N1CCCc2ccc(-c3c(-c4ccc(OCCN5CCCC5)cc4)[nH]c4nccc(Cl)c34)cc21 [Example 90, 1-(7-(4-chloro-2-(4-(2-(pyrrolidin-1-yl)ethoxy)phenyl)-1H-pyrrolo[2,3-b]pyridin-3-yl)-3,4-dihydroquinolin-1(2H)-yl)prop-2-en-1-one] | – | ≤ 0.1 | 0.5 to 1 | ≤ 0.1 | 0.1 to 0.5 | ≤ 0.1 | 1 to 10 | – | 1 to 100
6 | C=CC(=O)Nc1cc(-c2c(-c3ccc(N4CCN(C)CC4)cc3)[nH]c3ncc(C(=O)NCc4ccc(F)cc4F)cc23)ccc1C [Example 131, 3-(3-acrylamido-4-methylphenyl)-N-(2,4-difluorobenzyl)-2-(4-(4-methylpiperazin-1-yl)phenyl)-1H-pyrrolo[2,3-b]pyridine-5-carboxamide] | – | ≤ 0.1 | 0.5 to 1 | 0.5 to 1 | 1 to 100 | 0.1 to 0.5 | 1 to 10 | – | 1 to 100
7 | C=CC(=O)Nc1cc(-c2c(-c3cnc(N4CCN(C)CC4)nc3)[nH]c3ncc(C(=O)OC(C)C)cc23)ccc1C [Example 175, isopropyl 3-(3-acrylamido-4-methylphenyl)-2-(2-(4-methylpiperazin-1-yl)pyrimidin-5-yl)-1H-pyrrolo[2,3-b]pyridine-5-carboxylate] | – | ≤ 0.1 | 1 to 10 | 0.1 to 0.5 | 1 to 100 | 0.1 to 0.5 | 1 to 10 | – | 1 to 100
8 | C=CC(=O)Nc1cc(-c2c(-c3ccc(N4CCN(C)CC4)cc3)[nH]c3ncc(C(=O)OC4CCCCC4)cc23)ccc1C [Example 137, cyclohexyl 3-(3-acrylamido-4-methylphenyl)-2-(4-(4-methylpiperazin-1-yl)phenyl)-1H-pyrrolo[2,3-b]pyridine-5-carboxylate] | – | ≤ 0.1 | 0.5 to 1 | ≤ 0.1 | 0.1 to 0.5 | 0.1 to 0.5 | 0.5 to 1 | – | 1 to 100
9 | C=CC(=O)N1CCOc2ccc(-c3c(-c4ccc(OCCN5CCCC5)cc4)[nH]c4nccc(Cl)c34)cc21 [Example 101, 1-(6-(4-chloro-2-(4-(2-(pyrrolidin-1-yl)ethoxy)phenyl)-1H-pyrrolo[2,3-b]pyridin-3-yl)-2H-benzo[b][1,4]oxazin-4(3H)-yl)prop-2-en-1-one] | – | ≤ 0.1 | 0.1 to 0.5 | ≤ 0.1 | 0.1 to 0.5 | ≤ 0.1 | 0.1 to 0.5 | – | 1 to 100
10 | C=CC(=O)Nc1cc(-c2c(-c3cccc(OCCCN(C)C)c3)[nH]c3ncc(C(=O)OC(C)C)cc23)ccc1C [Example 183, isopropyl 3-(3-acrylamido-4-methylphenyl)-2-(3-(3-(dimethylamino)propoxy)phenyl)-1H-pyrrolo[2,3-b]pyridine-5-carboxylate] | – | ≤ 0.1 | 0.1 to 0.5 | ≤ 0.1 | 0.1 to 0.5 | ≤ 0.1 | 0.1 to 0.5 | – | 1 to 100

Results, then the molecule that gave them:

Row | Stability in presence of mouse liver microsomes without cofactor NADPH [% remaining after 50 min] [1] [% remaining after 50 min] | IC50 [2] [µM] | GI50 [3] [µM] | IC50 [4] [µM] | IC50 [5] [µM] | IC50 [6] [µM] | GI50 [7] [µM] | major metabolite observed ([1]; mouse liver microsomes with and without the cofactor NADPH) | IC50 [8] [µM] | SMILES
11 | 33 | – | – | – | – | – | – | hydrolysis of the acrylamide moiety | – | C=CC(=O)Nc1cccc(-c2c(-c3ccc(C4CCN(C)CC4)cc3)[nH]c3ncccc23)c1 [Reference 1, reference compound]
12 | 48 | – | – | – | – | – | – | – | – | C=CC(=O)Nc1cc(OC)cc(-c2c(-c3ccc(N4CCN(C)CC4)cc3)[nH]c3ncccc23)c1 [Reference 2, reference compound]
13 | – | ≤ 0.1 | 0.1 to 0.5 | ≤ 0.1 | 1 to 100 | ≤ 0.1 | 0.5 to 1 | – | 1 to 100 | C=CC(=O)N1CCc2ccc(-c3c(-c4ccc(N5CCN(C)CC5)cc4)[nH]c4ncc(C(=O)OC(C)C)cc34)cc21 [Example 192, isoproyl 3-(1-acryloylindolin-6-yl)-2-(4-(4-methylpiperazin-1-yl)phenyl)-1H-pyrrolo[2,3-b]pyridine-5-carboxylate 2,2,2-trifluoroacetate]
14 | – | ≤ 0.1 | 0.1 to 0.5 | ≤ 0.1 | ≤ 0.1 | ≤ 0.1 | 0.1 to 0.5 | – | 1 to 100 | C=CC(=O)Nc1cc(-c2c(-c3ccc(N4CCN(C)CC4)cc3)[nH]c3ncc(CC)cc23)ccc1C [Example 191, N-(5-(5-ethyl-2-(4-(4-methylpiperazin-1-yl)phenyl)-1H-pyrrolo[2,3-b]pyridin-3-yl)-2-methylphenyl)acrylamide 2,2,2-trifluoroacetate]
15 | – | ≤ 0.1 | 1 to 10 | 0.5 to 1 | 1 to 100 | 1 to 10 | 1 to 10 | – | > 10 | C=CC(=O)Nc1cc(-c2c(-c3cccc(N4CCN(C(C)=O)CC4)c3)[nH]c3ncc(C(=O)OC(C)C)cc23)ccc1C [Example 185, isopropyl 2-(3-(4-acetylpiperazin-1-yl)phenyl)-3-(3-acrylamido-4-methylphenyl)-1H-pyrrolo[2,3-b]pyridine-5-carboxylate]
